For data set [1], the system named is Phytophthora infestans. The format is in vivo. The following applies: tomato, preventive spray, 100 ppm of active ingredient, evaluated 7 days after inoculation.
A short description of data set [2]: log P by HPLC on reversed phase columns (EEC directive 79/831 Annex V.A8). The format is physicochemical. The note with it: pH 2.7, 0.1% formic acid in water / acetonitrile gradient. The procedure: Measurement of log P values was performed according EEC directive 79/831 Annex V.A8 by HPLC (High Performance Liquid Chromatography) on reversed phase columns with the following method:
measurement of LC-MS was done at pH 2.7 with 0.1% formic acid in water and with acetonitrile (contains 0.1% formic acid) as eluent with a linear gradient from 10% acetonitrle to 95% acetonitrile.
Calibration was done with not branched alkan2-ones (with 3 to 16 carbon atoms) with known log P-values (measurement of log P values using retention times with linear interpolation between successive alkanones). lambda-maX-values were determined using UV-spectra from 200 nm to 400 nm and the peak values of the chromatographic signals.

For data set [3], the system named is Plasmopara viticola. Put plainly: Plasmopara test (grapevines) / preventive. The note with it: preventive spray, 10 ppm of active ingredient, evaluated 6 days after inoculation. The format is in vivo. How it is done:
Plasmopara Test (Grapevines)/Preventive
To produce a suitable preparation of active compound, 1 part by weight of active compound is mixed with the stated amounts of solvent and emulsifier, and the concentrate is diluted with water to the desired concentration.
To test for preventive activity, young plants are sprayed with the preparation of active compound at the stated rate of application. After the spray coating has dried on, the plants are inoculated with an aqueous spore suspension of Plasmopara viticola and then remain for 1 day in an incubation cabinet at approximately 20° C. and a relative atmospheric humidity of 100%. The plant is subsequently placed for 4 days in a greenhouse at approximately 21° C. and a relative atmospheric humidity of approximately 90%. The plants are then misted and placed for 1 day in an incubation cabinet.
The test is evaluated 6 days after the inoculation. 0% means an efficacy which corresponds to that of the untreated control, while an efficacy of 100% means that no disease is observed.

Consider `COc1ccc2c(c1)OC(C(=O)Nc1nc(CON=C(c3ccccc3)c3nnnn3C)cs1)CC2` (centres unmarked) [Example 40], for which the Efficacy % came out at 98% in data set [1] and 96% in data set [3]. The logp in data set [2] is given as 3.78.
Regarding `Cn1nnnc1C(=NOCc1cccc(NC(=O)C2CCc3cc(F)ccc3O2)n1)c1ccccc1` (centres unmarked) [Example 4], in data set [1], the Efficacy % was found to be 95%. The same compound registered a logp in data set [2] of 4.01.
In data set [1], `Cc1cccc2c1OC(C(=O)Nc1nc(CON=C(c3ccccc3)n3nnnc3C)cs1)CO2` (centres unmarked) [Example 35] displayed an Efficacy % of 95%. Moreover, the logp in data set [2] is recorded as 3.87.
In data set [1], `Cc1ccc2c(c1)OC(C(=O)Nc1nc(CON=C(c3ccccc3)c3nnnn3C)cs1)CO2` (centres unmarked) [Example 12] yielded an Efficacy % of 95%. In data set [2], this compound had a logp of 3.78.
On to `Cc1ccc2c(c1)OC(C(=O)Nc1cccc(CON=C(c3ccccc3)n3nnnc3C)n1)CO2` (centres unmarked) [Example 26], for which the Efficacy % in data set [1] was determined as 95%. The same compound showed a logp in data set [2] of 4.11.
In data set [1], `Cn1nnnc1C(=NOCc1cccc(NC(=O)c2cc(=O)c3ccccc3o2)n1)c1ccccc1` [Example 59] yielded an Efficacy % of 95%. In data set [2], the logp stood at 3.27.
Turning to `Cc1nnnn1C(=NOCc1cccc(NC(=O)C2CCc3cc(F)ccc3O2)n1)c1ccccc1` (centres unmarked) [Example 23], in data set [1], the Efficacy % is 90%. In data set [2], this compound gave a logp of 4.11.
On to `Cn1nnnc1C(=NOCc1csc(NC(=O)C2Cc3ccccc3O2)n1)c1ccccc1` (centres unmarked) [Example 42], for which the Efficacy % in data set [1] was found to be 89%; in data set [3], 100%. Also, the logp in data set [2] stood at 3.39.
The compound `Cc1nnnn1C(=NOCc1csc(NC(=O)C2COc3ccc(C(C)(C)C)cc3O2)n1)c1ccccc1` (centres unmarked) [Example 33] returned an Efficacy % in data set [1] of 90%. For the same compound, the logp in data set [2] was 4.67.
In the case of `Cn1nnnc1C(=NOCc1cccc(NC(=O)C2CCc3ccccc3O2)n1)c1ccccc1` (centres unmarked) [Example 5], the results for the Efficacy % in data set [1] and in data set [3] were 95% and 89%, respectively. The compound further showed a logp in data set [2] of 4.01.
The compound `Cc1nnnn1C(=NOCc1csc(NC(=O)C2CCc3ccccc3O2)n1)c1ccccc1` (centres unmarked) [Example 32] showed an Efficacy % in data set [1] of 95%. For the same compound, in data set [2], the logp worked out at 3.83.
In data set [1], `Cc1nnnn1C(=NOCc1csc(NC(=O)C2Oc3ccccc3O2)n1)c1ccccc1` [Example 46] returned an Efficacy % of 75%. Further, the logp in data set [2] was 3.31.
In data set [1], `Cn1nnnc1C(=NOCc1csc(NC(=O)C2COc3ccc(C(C)(C)C)cc3O2)n1)c1ccccc1` (centres unmarked) [Example 15] displayed an Efficacy % of 90%. The logp in data set [2] was 4.62.
Regarding `Cn1nnnc1C(=NOCc1csc(NC(=O)C2COc3ccccc3O2)n1)c1ccccc1` (centres unmarked) [Example 14], the Efficacy % in data set [1] was determined as 90%. Further, in data set [2], the logp is 3.46.
In the case of `Cn1nnnc1C(=NOCc1csc(NC(=O)C2COc3ccccc32)n1)c1ccccc1` (centres unmarked) [Example 49], the logp in data set [2] is reported as 3.19.
Consider `COc1cccc2c1OC(C(=O)Nc1cccc(CON=C(c3ccccc3)c3nnnn3C)n1)CC2` (centres unmarked) [Example 3], for which the Efficacy % in data set [1] stood at 95%. Moreover, in data set [2], the logp worked out at 3.92.
In turn, `Cc1nnnn1C(=NOCc1csc(NC(=O)C2CC(=O)c3cc(F)ccc3O2)n1)c1ccccc1` (centres unmarked) [Example 37] gave an Efficacy % in data set [1] of 95%. In data set [2], this compound showed a logp of 3.33.
Consider `Cc1cccc2c1OC(C(=O)Nc1nc(CON=C(c3ccccc3)c3nnnn3C)cs1)CO2` (centres unmarked) [Example 13], for which the Efficacy % in data set [1] was determined as 98%. This compound also displayed a logp in data set [2] of 3.83.
Consider `Cn1nnnc1C(=NOCc1cccc(NC(=O)C2COc3ccccc3O2)n1)c1ccccc1` (centres unmarked) [Example 9], for which the Efficacy % in data set [1] turned out to be 85%; in data set [3], 97%. The compound further displayed a logp in data set [2] of 3.69.
Turning to `Cc1ccc2c(c1)OC(C(=O)Nc1cccc(CON=C(c3ccccc3)c3nnnn3C)n1)CO2` (centres unmarked) [Example 7], the Efficacy % turned out to be 95% in data set [1] and 75% in data set [3]. Besides, the logp in data set [2] was found to be 4.03.
On to `Cn1nnnc1C(=NOCc1cccc(NC(=O)C2CC(=O)c3cc(F)ccc3O2)n1)c1ccccc1` (centres unmarked) [Example 1], for which the Efficacy % in data set [1] was found to be 93%. The logp in data set [2] came out at 3.46.
In the case of `Cc1nnnn1C(=NOCc1cccc(NC(=O)C2COc3ccccc32)n1)c1ccccc1` (centres unmarked) [Example 58], the logp in data set [2] came out at 3.39.
On to `Cc1nnnn1C(=NOCc1cccc(NC(=O)C2CCc3cc(I)ccc3O2)n1)c1ccccc1` (centres unmarked) [Example 21], for which the Efficacy % in data set [1] is 80%. In data set [2], the logp was determined as 4.81.
`Cc1nnnn1C(=NOCc1cccc(NC(=O)C2CC(=O)c3cc(F)ccc3O2)n1)c1ccccc1` (centres unmarked) [Example 29] showed an Efficacy % in data set [1] of 90%. For the same compound, in data set [2], the logp turned out to be 3.53.
Compound `Cc1nnnn1C(=NOCc1csc(NC(=O)c2cc(=O)c3ccccc3o2)n1)c1ccccc1` [Example 44] gave an Efficacy % in data set [1] of 95%. Besides, the logp in data set [2] worked out at 3.21.
`Cn1nnnc1C(=NOCc1csc(NC(=O)C2CCc3cc(I)ccc3O2)n1)c1ccccc1` (centres unmarked) [Example 17]: in data set [1], the Efficacy % is 93%. In addition, in data set [2], the logp is recorded as 4.44.
Take `Cn1nnnc1C(=NOCc1csc(NC(=O)c2cc(=O)c3ccccc3o2)n1)c1ccccc1` [Example 47]: the Efficacy % in data set [1] is recorded as 70%. For the same compound, the logp in data set [2] is 3.17.
For the compound `Cn1nnnc1C(=NOCc1csc(NC(=O)C2Oc3ccccc3O2)n1)c1ccccc1` [Example 48], the Efficacy % in data set [1] is reported as 80%. The compound further showed a logp in data set [2] of 3.29.
In turn, `Cn1nnnc1C(=NOCc1cccc(NC(=O)C2COc3ccc(C(C)(C)C)cc3O2)n1)c1ccccc1` (centres unmarked) [Example 6] came in with an Efficacy % in data set [1] of 93%. In data set [2], this compound registered a logp of 4.92.
In the same order, the values of `Cc1nnnn1C(=NOCc1cccc(NC(=O)C2CCc3ccccc3O2)n1)c1ccccc1` (centres unmarked) [Example 24] are 93% and 4.08.
Compound `Cn1nnnc1C(=NOCc1csc(NC(=O)C2CCc3cc(F)ccc3O2)n1)c1ccccc1` (centres unmarked) [Example 19] displayed an Efficacy % in data set [1] of 95%. For the same compound, the logp in data set [2] is 3.8.
`Cc1nnnn1C(=NOCc1cccc(NC(=O)C2COc3ccc(C(C)(C)C)cc3O2)n1)c1ccccc1` (centres unmarked) [Example 25]: the Efficacy % in data set [1] was determined as 93%. Besides, the logp in data set [2] worked out at 5.03.
In data set [1], `Cc1ccc2c(c1)OC(C(=O)Nc1nc(CON=C(c3ccccc3)n3nnnc3C)cs1)CO2` (centres unmarked) [Example 34] yielded an Efficacy % of 95%. In data set [2], this compound came in with a logp of 3.83.
In the same order, the values of `Cc1nnnn1C(=NOCc1csc(NC(=O)C2CCc3cc(F)ccc3O2)n1)c1ccccc1` (centres unmarked) [Example 31] are 95% and 3.87.
Consider `Cn1nnnc1C(=NOCc1cccc(NC(=O)C2COc3ccccc32)n1)c1ccccc1` (centres unmarked) [Example 61], for which, in data set [2], the logp was determined as 3.37.
With `COc1cccc2c1OC(C(=O)Nc1nc(CON=C(c3ccccc3)n3nnnc3C)cs1)CC2` (centres unmarked) [Example 30], the Efficacy % in data set [1] came out at 95%. Moreover, the logp in data set [2] amounted to 3.69.
The compound `Cc1nnnn1C(=NOCc1csc(NC(=O)C2CCc3cc(I)ccc3O2)n1)c1ccccc1` (centres unmarked) [Example 38] showed an Efficacy % in data set [1] of 95%. The compound also came in with a logp in data set [2] of 4.49.
`Cc1nnnn1C(=NOCc1cccc(NC(=O)C2COc3ccccc3O2)n1)c1ccccc1` (centres unmarked) [Example 28] came in with an Efficacy % in data set [1] of 98%. For the same compound, the logp in data set [2] is listed as 3.78.
Regarding `Cc1nnnn1C(=NOCc1cccc(NC(=O)C2Oc3ccccc3O2)n1)c1ccccc1` [Example 57], in data set [1], the Efficacy % stood at 88%. The compound further returned a logp in data set [2] of 3.48.
For `COc1cccc2c1OC(C(=O)Nc1nc(CON=C(c3ccccc3)c3nnnn3C)cs1)CC2` (centres unmarked) [Example 18], in that order: 95% and 3.64.
Consider `Cc1nnnn1C(=NOCc1csc(NC(=O)C2COc3ccccc3O2)n1)c1ccccc1` (centres unmarked) [Example 36], for which the Efficacy % in data set [1] is 95%. The compound further had a logp in data set [2] of 3.51.
For `Cn1nnnc1C(=NOCc1csc(NC(=O)C2CC(=O)c3cc(F)ccc3O2)n1)c1ccccc1` (centres unmarked) [Example 16], the Efficacy % in data set [1] amounted to 93%. In addition, the logp in data set [2] was determined as 3.29.
`COc1cccc2c1OC(C(=O)Nc1cccc(CON=C(c3ccccc3)n3nnnc3C)n1)CC2` (centres unmarked) [Example 22] had an Efficacy % in data set [1] of 80%. The logp in data set [2] worked out at 3.99.
Regarding `Cn1nnnc1C(=NOCc1csc(NC(=O)C2CCc3ccccc3O2)n1)c1ccccc1` (centres unmarked) [Example 20], the Efficacy % in data set [1] is on record as 93%. The compound further displayed a logp in data set [2] of 3.78.
In the case of `COc1ccc2c(c1)OC(C(=O)Nc1cccc(CON=C(c3ccccc3)c3nnnn3C)n1)CC2` (centres unmarked) [Example 39], the Efficacy % in data set [1] was determined as 95%. In data set [2], the logp is 3.96.
With `Cc1nnnn1C(=NOCc1cccc(NC(=O)c2cc(=O)c3ccccc3o2)n1)c1ccccc1` [Example 43], in data set [1], the Efficacy % worked out at 85%. This compound gave a logp in data set [2] of 3.33.
For `Cc1cccc2c1OC(C(=O)Nc1cccc(CON=C(c3ccccc3)n3nnnc3C)n1)CO2` (centres unmarked) [Example 27], in that order: 95% and 4.15.
`Cn1nnnc1C(=NOCc1cccc(NC(=O)C2CCc3cc(I)ccc3O2)n1)c1ccccc1` (centres unmarked) [Example 2] displayed an Efficacy % in data set [1] of 95%. The logp in data set [2] is reported as 4.7.

The values are drawn from US8796463B2 (priority 2009, dated 2014).
